{
  "source": "patent US20240306670A1",
  "about": "“BERBERINE ALKALOIDS IN THE PREVENTION AND/OR TREATMENT OF INTESTINAL DISEASE” (priority 2017, published 2024)",
  "test_system": "Clostridium Perfringens (type A strain EHE-NE36) after Eimeria oocyst challenge",
  "conditions": "for Median Duodenal Lesion Score (0 absent to 4 severe) / Median Ilial Lesion Score (0 absent to 4 severe) / Median Jejunal Lesion Score (0 absent to 4 severe): 16 days",
  "key": {"[1]": {"conditions": "NE challenge, IVP 0.1 g/L in-water, groups 7, 8"}, "[2]": {"conditions": "NE challenge, IVP 0.20 g/kg in-feed, group 11"}, "[3]": {"conditions": "NE challenge, IVP 1.0 g/L in-water, groups 9, 10"}, "[4]": {"conditions": "NE challenge, IVP 2.0 g/kg in-feed, group 12"}, "[5]": {"conditions": "Necrotic Enteritis, IVP feed 0.2 g/kg, group 11, isolator 9, 11 birds"}, "[6]": {"conditions": "Necrotic Enteritis, IVP feed 2 g/kg, group 12, isolator 3, 15 birds"}, "[7]": {"conditions": "Necrotic Enteritis, IVP water 0.1 g/L, 'Mean' line of groups 7 and 8, 28 birds"}, "[8]": {"conditions": "Necrotic Enteritis, IVP water 0.1 g/L, group 7, isolator 6, 13 birds"}, "[9]": {"conditions": "Necrotic Enteritis, IVP water 0.1 g/L, group 8, isolator 11, 15 birds"}, "[10]": {"conditions": "Necrotic Enteritis, IVP water 1.0 g/L, 'Mean' line of groups 9 and 10, 25 birds"}, "[11]": {"conditions": "Necrotic Enteritis, IVP water 1.0 g/L, group 9, isolator 2, 9 birds"}, "[12]": {"conditions": "Necrotic Enteritis, IVP water 1.0 g/L, group 10, isolator 8, 16 birds"}, "[13]": {"conditions": "Nil Challenge, IVP water 1.0 g/L, 'Mean' line of groups 3 and 4, 25 birds"}, "[14]": {"conditions": "Nil Challenge, IVP water 1.0 g/L, group 3, isolator 10, 10 birds"}, "[15]": {"conditions": "Nil Challenge, IVP water 1.0 g/L, group 4, isolator 4, 15 birds"}, "[16]": {"conditions": "Nil challenge, IVP 1.0 g/L in-water, groups 3, 4"}},
  "note": "Where two headings read alike, the source gives them in different places.",
  "data": [
    {"smiles": "COc1ccc2cc3[n+](cc2c1OC)CCc1cc2c(cc1-3)OCO2", "note": "[IRP001 chloride, berberine chloride]", "values": [
      {"measurement": "Median Duodenal Lesion Score (0 absent to 4 severe)", "setting": "[1]", "value": 4},
      {"measurement": "Median Ilial Lesion Score (0 absent to 4 severe)", "setting": "[1]", "value": 4},
      {"measurement": "Median Jejunal Lesion Score (0 absent to 4 severe)", "setting": "[1]", "value": 4},
      {"measurement": "Median Duodenal Lesion Score (0 absent to 4 severe)", "setting": "[2]", "value": 4},
      {"measurement": "Median Ilial Lesion Score (0 absent to 4 severe)", "setting": "[2]", "value": 4},
      {"measurement": "Median Jejunal Lesion Score (0 absent to 4 severe)", "setting": "[2]", "value": 4},
      {"measurement": "Median Duodenal Lesion Score (0 absent to 4 severe)", "setting": "[3]", "value": 1},
      {"measurement": "Median Ilial Lesion Score (0 absent to 4 severe)", "setting": "[3]", "value": 1},
      {"measurement": "Median Jejunal Lesion Score (0 absent to 4 severe)", "setting": "[3]", "value": 1},
      {"measurement": "Median Duodenal Lesion Score (0 absent to 4 severe)", "setting": "[4]", "value": 1},
      {"measurement": "Median Ilial Lesion Score (0 absent to 4 severe)", "setting": "[4]", "value": 1},
      {"measurement": "Median Jejunal Lesion Score (0 absent to 4 severe)", "setting": "[4]", "value": 1},
      {"measurement": "Mortalities prior to autopsy", "setting": "[5]", "value": 9},
      {"measurement": "Mortality %", "setting": "[5]", "value": 82, "unit": "%"},
      {"measurement": "Mortalities prior to autopsy", "setting": "[6]", "value": 2},
      {"measurement": "Mortality %", "setting": "[6]", "value": 13, "unit": "%"},
      {"measurement": "Mortalities prior to autopsy", "setting": "[7]", "value": 22},
      {"measurement": "Mortality %", "setting": "[7]", "value": 79, "unit": "%"},
      {"measurement": "Mortalities prior to autopsy", "setting": "[8]", "value": 12},
      {"measurement": "Mortality %", "setting": "[8]", "value": 92, "unit": "%"},
      {"measurement": "Mortalities prior to autopsy", "setting": "[9]", "value": 10},
      {"measurement": "Mortality %", "setting": "[9]", "value": 67, "unit": "%"},
      {"measurement": "Mortalities prior to autopsy", "setting": "[10]", "value": 0},
      {"measurement": "Mortality %", "setting": "[10]", "value": 0, "unit": "%"},
      {"measurement": "Mortalities prior to autopsy", "setting": "[11]", "value": 0},
      {"measurement": "Mortality %", "setting": "[11]", "value": 0, "unit": "%"},
      {"measurement": "Mortalities prior to autopsy", "setting": "[12]", "value": 0},
      {"measurement": "Mortality %", "setting": "[12]", "value": 0, "unit": "%"},
      {"measurement": "Mortalities prior to autopsy", "setting": "[13]", "value": 0},
      {"measurement": "Mortality %", "setting": "[13]", "value": 0, "unit": "%"},
      {"measurement": "Mortalities prior to autopsy", "setting": "[14]", "value": 0},
      {"measurement": "Mortality %", "setting": "[14]", "value": 0, "unit": "%"},
      {"measurement": "Mortalities prior to autopsy", "setting": "[15]", "value": 0},
      {"measurement": "Mortality %", "setting": "[15]", "value": 0, "unit": "%"},
      {"measurement": "Median Duodenal Lesion Score (0 absent to 4 severe)", "setting": "[16]", "value": 0},
      {"measurement": "Median Ilial Lesion Score (0 absent to 4 severe)", "setting": "[16]", "value": 0},
      {"measurement": "Median Jejunal Lesion Score (0 absent to 4 severe)", "setting": "[16]", "value": 0}
    ]}
  ]
}
